# Assay results as given in publication PMC6753678, “Fueling Open Innovation for Malaria Transmission-Blocking Drugs: Hundreds of Molecules Targeting Early Parasite Mosquito Stages” (Frontiers in Microbiology, 2019).
# Values joined by “and” are separate entries in the source; they are usually repeats but may differ in a detail not shown here. Identical values can stand only once. Like-named read-outs stand apart in the source and are kept apart here.
# Legend:
# [1] = test system: P. berghei ookinete development; experiment: microbe, parasite or virus in culture; conditions: Plasmodium berghei
# HepG2 cells = experiment: HepG2 cytotoxicity assay; conditions: for Pb ODA (this manuscript) HepG2 cytoxicity: HepG2 cytotoxicity listed with the Pb ODA data set (this manuscript); for IC50: Homo sapiens, HepG2, 48 h, read-out: IC50 HepG2
# Outline: (§1)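 Here viability after a 48 h compound incubation (37°C, humidified 5% CO2) is measured by fluorescence and expressed as percent inhibition, with doxorubicin at 50 μM and DMSO as the bounding controls.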
# [2] = test system: P. berghei ookinete development
# [3] = test system: P. falciparum male gametocytes; experiment: P. falciparum Dual Gamete Formation Assay (Pf DGFA), male readout; conditions: for Pf DGFA Male, Expt 1 / Pf DGFA Male, Expt 2 / Pf DGFA Male, Expt 3 / Pf DGFA Male, Expt 4: 1µM; for inhibition at 1 µM: Plasmodium falciparum, read-out: % inhibition Pf DGFA (male) 1 μM (±SEM), 1 μM, mean of four experiments
# [4] = test system: P. berghei oocyst intensity in Anopheles stephensi mosquitoes; experiment: P. berghei standard membrane feeding assay (Pb SMFA); conditions: for Raw mosquito counts (oocysts per mosquito): one mosquito per cell; for Number of oocysts counted per mosquito (raw mosquito counts): individual mosquito
# [5] = test system: 3D7-strain P. falciparum asexual parasites; experiment: P. falciparum asexual growth inhibition assay (Pf GIA); type: cell-based, Plasmodium falciparum; conditions: Plasmodium falciparum
# Outline: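 0.25% parasitemia, 2% Hct, RPMI/HEPES/hypoxanthine/5% Albumax; compound dose response, 72 h, 37°C, 5% CO2, 5% O2, 90% N2. Freeze-thaw, then LDH assay, A650. % inhibition vs chloroquine (50 μM)/DMSO, mean of 3 independent runs.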
# [6] = test system: P. falciparum female gametocytes; experiment: P. falciparum Dual Gamete Formation Assay (Pf DGFA), female readout; conditions: for Pf DGFA Female, Expt 1 / Pf DGFA Female, Expt 2 / Pf DGFA Female, Expt 3 / Pf DGFA Female, Expt 4: 1µM; for % inhibition Pf DGFA (female) 1 μM (±SEM): mean of four experiments; for inhibition at 1 µM: Plasmodium falciparum, read-out: % inhibition Pf DGFA (female) 1 μM (±SEM), 1 μM, mean of four experiments
# HepG2 cytotoxicity assay = conditions: human, HepG2 cells
# Outline: as §1
# [7] = read-out: % inhibition, Replicate A
# [8] = read-out: % inhibition, Replicate B
# [9] = read-out: IC50 Pb ODA, dose response, at least triplicate
# [10] = read-out: % inhibition Pb SMFA 1 μM (±SEM), inhibition of oocyst intensity at 1 μM
# [11] = 3D7, dose response confirmation, read-out: Pf asexual growth inhibition assays IC50
# [12] = 3D7, 72 h, LDH readout, read-out: IC50 Pf Asexual
compound,measurement,setting,value
Cc1[nH]c(C)c(-c2ccc(CCc3ccc(F)cc3F)cc2)c(=O)c1Br [TCMDC-135461],inhibition at 1 µM,[1]; [7],68.3%
same,inhibition at 1 µM,[1]; [8],109%
same,IC50,[1]; [9],< 0.0002 µM
same,Pb ODA (this manuscript) HepG2 cytoxicity,HepG2 cells,100.00 µM
same,IC50,HepG2 cells,> 100000 nM
same,Is compound selective in assay? Pb ODA active?,[2],1 (key: 1: YES; 0: NO)
same,"Pf DGFA Male, Expt 1",[3],97.72
same,"Pf DGFA Male, Expt 2",[3],60.95
same,"Pf DGFA Male, Expt 3",[3],69.63
same,"Pf DGFA Male, Expt 4",[3],73.29
same,inhibition at 1 µM,[3],75.4%
same,Mean (number of oocysts counted per mosquito),"[4]; Experiment 4, 10nM",0.78
same,Prevalence,"[4]; Experiment 4, 10nM",45.65
same,Mean (number of oocysts counted per mosquito),"[4]; Experiment 4, 100nM",0.00
same,Mean (number of oocysts counted per mosquito),"[4]; Experiment 4, 1µM",0.00
same,Prevalence,"[4]; Experiment 4, 1µM",0.00
same,Raw mosquito counts (oocysts per mosquito),"[4]; Experiment 4, 100nM",0
same,Raw mosquito counts (oocysts per mosquito),"[4]; Experiment 4, 1µM",0
same,Mean (number of oocysts counted per mosquito),"[4]; Experiment 5, 10nM",2.70
same,Prevalence,"[4]; Experiment 5, 10nM",45.65
same,Mean (number of oocysts counted per mosquito),"[4]; Experiment 5, 100nM",1.53
same,Number of oocysts counted per mosquito (raw mosquito counts),"[4]; Experiment 5, 100nM",0 and 1 and 3
same,Mean (number of oocysts counted per mosquito),"[4]; Experiment 5, 1µM",0.00
same,Prevalence,"[4]; Experiment 5, 1µM",0.00
same,Number of oocysts counted per mosquito (raw mosquito counts),"[4]; Experiment 5, 1µM",0
same,Raw mosquito counts (oocysts per mosquito),"[4]; Experiment 5, 1µM",0
same,Mean (number of oocysts counted per mosquito),"[4]; Experiment 6, 10nM",58.31
same,Prevalence,"[4]; Experiment 6, 10nM",98.15
same,Mean (number of oocysts counted per mosquito),"[4]; Experiment 6, 100nM",21.75
same,Prevalence,"[4]; Experiment 6, 100nM",86.76
same,Number of oocysts counted per mosquito (raw mosquito counts),"[4]; Experiment 6, 100nM",30
same,Mean (number of oocysts counted per mosquito),"[4]; Experiment 6, 1µM",0.00
same,Prevalence,"[4]; Experiment 6, 1µM",0.00
same,Number of oocysts counted per mosquito (raw mosquito counts),"[4]; Experiment 6, 1µM",0
same,Raw mosquito counts (oocysts per mosquito),"[4]; Experiment 6, 1µM",0
same,inhibition at 0.1 µM,"[4]; read-out: % inhibition (oocyst intensity), Experiment 4, 100nM, vs DMSO",100%
same,inhibition at 1 µM,"[4]; read-out: % inhibition (oocyst intensity), Experiment 4, 1µM, vs DMSO",100%
same,inhibition at 0.01 µM,"[4]; read-out: % inhibition (oocyst intensity), Experiment 5, 10nM, vs DMSO",28.9%
same,inhibition at 0.1 µM,"[4]; read-out: % inhibition (oocyst intensity), Experiment 5, 100nM, vs DMSO",59.6%
same,inhibition at 1 µM,"[4]; read-out: % inhibition (oocyst intensity), Experiment 5, 1µM, vs DMSO",100%
same,inhibition at 0.01 µM,"[4]; read-out: % inhibition (oocyst intensity), Experiment 6, 10nM, vs DMSO",30.5%
same,inhibition at 0.1 µM,"[4]; read-out: % inhibition (oocyst intensity), Experiment 6, 100nM, vs DMSO",74.1%
same,inhibition at 1 µM,"[4]; read-out: % inhibition (oocyst intensity), Experiment 6, 1µM, vs DMSO",100%
same,inhibition at 1 µM,[4]; [10],100%
same,inhibition at 1 µM,"[4]; read-out: % prev inhibition, Experiment 4, 1µM, vs DMSO",100%
same,inhibition at 1 µM,"[4]; read-out: % prev inhibition, Experiment 5, 1µM, vs DMSO",100%
same,inhibition at 0.01 µM,"[4]; read-out: % prev inhibition, Experiment 6, 10nM, vs DMSO",1.85%
same,inhibition at 0.1 µM,"[4]; read-out: % prev inhibition, Experiment 6, 100nM, vs DMSO",13.2%
same,inhibition at 1 µM,"[4]; read-out: % prev inhibition, Experiment 6, 1µM, vs DMSO",100%
same,inhibition at 0.01 µM,"[4]; read-out: inhibition of oocyst intensity Pb SMFA, 10 nM",43%
same,inhibition at 0.1 µM,"[4]; read-out: inhibition of oocyst intensity Pb SMFA, 100 nM",77.9%
same,IC50,[5]; [11],3 nM
same,IC50,[5]; [12],3.1 nM
same,"Pf DGFA Female, Expt 1",[6],72.43
same,"Pf DGFA Female, Expt 2",[6],81.97
same,"Pf DGFA Female, Expt 3",[6],-31.20
same,"Pf DGFA Female, Expt 4",[6],-13.42
same,% inhibition Pf DGFA (female) 1 μM (±SEM),[6],27.45%
same,inhibition at 1 µM,[6],27.4%
COc1ccc2ncc(F)c(CCN3CCC(NC(=O)c4ccc5c(n4)NC(=O)CS5)C(O)C3)c2n1 (centres unmarked) [TCMDC-135907],inhibition at 1 µM,[1]; [7],99.8%
same,inhibition at 1 µM,[1]; [8],69.5%
same,IC50,[1]; [9],> 0.25 µM
same,IC50,"[1]; read-out: Pb ODA IC50, this manuscript",0.38 µM
same,IC50 at 48 h,HepG2 cytotoxicity assay,42200 nM
same,"HepG2 cytoxicity (Pb ODA, this manuscript)","HepG2 cells; HepG2, this manuscript",42.17 µM
same,Unified cytotox,HepG2 cells; HepG2 values of the three screens unified,42.17 µM
same,IC50,HepG2 cells,42200 nM
same,Is compound selective in assay? Pb ODA active?,"[2]; 1: YES, 0: NO",1 (1: YES)
same,IC50,[2]; [9],381 nM
same,"Pf DGFA Male, Expt 1",[3],27.09
same,"Pf DGFA Male, Expt 2",[3],-8.08
same,"Pf DGFA Male, Expt 3",[3],-8.79
same,"Pf DGFA Male, Expt 4",[3],59.50
same,inhibition at 1 µM,[3],17.4%
same,inhibition at 1 µM,[4]; [10],56.2%
same,IC50,[5]; [11],2020 nM
same,IC50,[5]; [12],2020 nM
same,"Pf DGFA Female, Expt 1",[6],25.41
same,"Pf DGFA Female, Expt 2",[6],-9.01
same,"Pf DGFA Female, Expt 3",[6],-10.92
same,"Pf DGFA Female, Expt 4",[6],-26.87
"CCCCCCCc1c(C)nc2cc(OC)ccc2c1O [TCMDC-137173, endochin]",inhibition at 1 µM,[1]; [7],115%
same,inhibition at 1 µM,[1]; [8],101%
same,IC50,[1]; [9],< 0.06 µM
same,IC50,"[1]; read-out: Pb ODA (this manuscript) IC50 (µM), P. berghei ookinete development assay, this manuscript",0.0248 µM
same,IC50,"[1]; read-out: Pb Ookinete development assay IC50 (µM), dose response confirmation",0.025 µM
same,Pb ODA (this manuscript) HepG2 cytoxicity,HepG2 cells,100.00 µM
same,IC50,HepG2 cells,> 100000 nM
same,Is compound selective in assay? Pb ODA active?,[2],1 (key: 1: YES; 0: NO)
same,"Pf DGFA Male, Expt 1",[3],94.68
same,"Pf DGFA Male, Expt 2",[3],60.36
same,"Pf DGFA Male, Expt 3",[3],74.13
same,"Pf DGFA Male, Expt 4",[3],77.74
same,% inhibition Pf DGFA (male) 1 μM (±SEM),"[3]; 1 μM, mean of four experiments",76.7% and 76.73%
same,inhibition at 1 µM,[3],76.7%
same,inhibition at 1 µM,[4]; [10],98.4%
same,IC50,[5]; [11],35 nM
same,IC50,[5]; [12],35.2 nM
same,"Pf DGFA Female, Expt 1",[6],46.16
same,"Pf DGFA Female, Expt 2",[6],7.10
same,"Pf DGFA Female, Expt 3",[6],41.06
same,"Pf DGFA Female, Expt 4",[6],-10.25
same,% inhibition Pf DGFA (female) 1 μM (±SEM),[6],21.02%
same,inhibition at 1 µM,[6],21%
